Measured values reported in patent publication US20020022594A1, “Bax fragment induced tumor cell death” (priority 2000, published 2002).
Where a SMILES comes first, the peptide text is derived from it. [ ]: non-standard residue; d: D form. The star is where a group is joined. Nle = CCCC[C@H](N)C(=O)O; Cbz = O=C(OCc1ccccc1)*; CH2F = FC*

What was measured:
[1] = test system: human breast cancer MCF-7; test: Transient transfection of Bax/p18 or Bax/p21 cDNA in MCF-7 cells; assay type: cell-based
Protocol: (§1) The resulting supernatant was then centrifuged at 14,000×g for 30 minutes, followed by collection of both the supernatant and pellet fractions. […] The supernatant was further centrifuged at 600,000×g for 30 minutes and the resulting supernatant was collected as the cytosol fraction. To prepare a whole cell extract, cells were lysed in the lysis buffer, and the lysate was centrifuged at 14,000×g for 30 minutes.
(§2) Bax/p18 cDNA was amplified by PCR with human Bax-α-cDNA as template using primer 5′-[…] (forward) and 5′-[…] (reverse) (Wood et al., 1998) and cloned into pcDNA3.0 between Hind III and Xho I restriction enzyme sites. Bax/p18 cDNA was verified by sequencing. MCF-7, Jurkat T. Neo and BcI-2 cells were transfected with pcDNA3.0 vector alone or pcDNA3.0 vector containing Bax/p18 or Bax/p21 cDNA using GenePORTER Transfection Reagent (Gene Therapy Systems, San Diego, Calif.) according to the manufacture's instructions. Briefly, 3 μg of plasmid DNA in 500 μl of RPMI 1640 medium was incubated for 30 minutes at room temperature with 25 μl of GenePORTER reagent in 500 μl of RPMI 1640 medium. The resultant GenePORTER-plasmid DNA mixture (1 ml) was then added into cells 2×10^6 cells in a well of a 6-well plate, followed by 5 hours incubation at 37° C. in a humidified atmosphere consisting of 5% CO2. […]

[2] = molecular target: T1, Bcl-2 (Homo sapiens, UniProt P10415); test: Immunoprecipitation-Western blot assay of interaction with Bcl-2 in mitochondrial fraction; assay type: binding; settings: mitochondrial fraction of Jurkat T cells untreated or treated with VP-16 for 12 hours
T1 construct: the mitochondria fraction (500 μg of protein) from VP-16-treated or untreated Jurkat T cells; endogenous in cells; host or cells: Jurkat T cells, untreated or treated with VP-16 for 12 hours; mitochondrial membrane-enriched fraction
Protocol: Immunoprecipitation assay was performed as described previously (Fattman et al., 1997). Briefly, the mitochondria fraction (500 μg of protein) from VP-16-treated or untreated Jurkat T cells was incubated with a 5 μg of a monoclonal anti-human Bcl-2 antibody overnight at 4° C. The protein-antibody complex was then precipitated by incubating with 2 μl of Protein G plus Protein A agarose (Oncogene) for 1 hour at 4° C. and centrifuging at 2000×g at 4° C. for 1 hour. Both the precipitate and supernatant fractions were then analyzed by immunoblotting using the monoclonal B9 anti-human Bax antibody.

[3] = test system: Jurkat T cells; test: Transient transfection of Bax/p18 or Bax/p21 cDNA in Jurkat T cells; assay type: cell-based, human; settings: 48 hours after cDNA transfection
Protocol: as §1
as §2, with “CO2. After that, 1 ml of RPMI 1640 medium containing 20% fetal calf serum was added and the cells were further incubated for additional 43 hours before harvest.” for “CO2.”

[4] = test system: cell-free Bax cleavage activity (calpain-like) in whole cell extract of VP-16-treated Jurkat T cells; test: Cell-free Bax cleavage assay with protease inhibitors; assay type: biochemical, human; settings: 35S-labeled Bax, 2 hours
Protocol: Briefly, the ^35S-labeled Bax protein (1 μl) was incubated with 100 μg of a whole cell extract or a cytosol or mitochondrial fraction in an assay buffer (10 mM HEPES, pH 7.4, 5 mM MgCl2, 5 mM CaCl2, and 1 mM DTT), supplemented with ATP-regenerating system (0.1 mg/ml creatine kinase, 100 mM creatine phosphate, and 5 mM ATP) for 2 hours at 37° C. […] For inhibitor studies, 10 μM of calpain inhibitor-1 (LLnL), 10 μM of calpain inhibitor-2 (LLM), 20 μM of pan-caspase inhibitor Z-VAD-FMK, 20 μM of caspase-3 inhibitor Ac-DEVD-CMK, or 20 μM of the specific proteasome inhibitor castolactacystin, lactone was added in the Bax cleavage system.

[5] = test system: Jurkat T cells; settings: VP-16 50 μM
[6] = test system: Jurkat T cells; test: Apoptotic execution in drug-treated Jurkat T cells (caspase-3 processing, PARP cleavage, DNA fragmentation, TUNEL)
[7] = test system: Neo cells (Jurkat T cells transfected with vector alone); test: VP-16 treatment of Neo (vector) Jurkat T cells; assay type: cell-based, human; settings: VP-16 50 μM
Protocol: (§3) MCF-7, Jurkat T. Neo and Bcl-2 cells were cultured in RPMI 1640 supplemented with 10% fetal calf serum, 100 units/ml of penicillin and 100 μg/ml of streptomycin at 37° C. in a humidified atmosphere consisting of 5% CO2 and 95% air. […] For the experiment using a specific calpain inhibitor, Jurkat T cells were pretreated for 1 hour with calpeptin at 10 μM, followed by a co-incubation with 50 μM of VP-16, as indicated in figure legends.
as §1
Briefly, the ^35S-labeled Bax protein (1 μl) was incubated with 100 μg of a whole cell extract or a cytosol or mitochondrial fraction in an assay buffer (10 mM HEPES, pH 7.4, 5 mM MgCl2, 5 mM CaCl2, and 1 mM DTT), supplemented with ATP-regenerating system (0.1 mg/ml creatine kinase, 100 mM creatine phosphate, and 5 mM ATP) for 2 hours at 37° C. […]

[8] = test system: Jurkat T cells; test: Cytochrome c release from mitochondria to cytosol in drug-treated Jurkat T cells; assay type: cell-based, human
Protocol: as §1
(§4) The primary antibodies used were: monoclonal B9anti-Bax antibody (Santa Cruz Biotechnology, Santa Cruz, Calif.) at 1:500, monoclonal 6A7 anti-Bax antibody (Pharmingen, San Diego, Calif.) at 1:500, monoclonal anti-Bcl-2 antibody (Dako, Glostrup, Denmark) at 1:500, monoclonal anti-caspase-3 antibody (Onocogene, Cambridge, Mass.) at 1:200, monoclonal anti-cytochrome C antibody (Pharmingen) at 1:500, polyclonal anti-PARP antibody (Boehringer Manheim, Indianapolis, Ind.) at 1:3000, monoclonal anti-cytochrome oxidase unit 11 (COX) antibody (Molecular Probes, Eugene, Oreg.) at 1:200, and monoclonal anti-calpain 30 kDa subunit antibody (Chemicon, Temecula, Calif.) at 1:500.

[9] = test system: Jurkat T cells; test: Cell-free Bax cleavage activity in whole cell lysates of drug-treated Jurkat T cells; settings: VP-16 50 μM; absent in untreated cells
[10] = test system: Bcl-2 cells (Jurkat T cells overexpressing Bcl-2); test: VP-16 treatment of Bcl-2 overexpressing Jurkat T cells; settings: VP-16 50 μM
[11] = test system: Jurkat T cells; test: Calpeptin pre- and co-treatment of VP-16-treated Jurkat T cells; assay type: cell-based, human
Protocol: as §3, §1, §4

[12] = calpeptin 10 μM pre- and co-treatment, VP-16 50 μM

T1 sequence (P10415 whole entry): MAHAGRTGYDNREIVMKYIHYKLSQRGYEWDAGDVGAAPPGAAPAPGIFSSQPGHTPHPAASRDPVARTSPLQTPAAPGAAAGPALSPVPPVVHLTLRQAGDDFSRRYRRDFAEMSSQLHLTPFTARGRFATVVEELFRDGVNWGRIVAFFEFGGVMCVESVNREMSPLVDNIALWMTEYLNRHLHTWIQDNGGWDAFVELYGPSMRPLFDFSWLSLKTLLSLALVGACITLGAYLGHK

Bax/p21: full-length Bax protein, endogenous or expressed from transfected Bax-α cDNA
cytochrome c-associated apoptotic events [1]: did not induce | interaction with Bcl-2 (co-immunoprecipitation by anti-Bcl-2 antibody) [2]: co-immunoprecipitated | release of cytochrome c [3]: not observed

Bax/p18: calpain-cleaved 18 kDa Bax fragment; the cloned Bax/p18 consists of amino acids 33-192 of Bax, expressed from transfected cDNA
cytochrome c-associated apoptotic events [1]: release of cytochrome c, cleavage of PARP and fragmentation of DNA | interaction with Bcl-2 (co-immunoprecipitation by anti-Bcl-2 antibody) [2]: did not interact | caspase-3 processing/activation, PARP cleavage and DNA fragmentation [3]: detected | release of cytochrome c [3]: induced

CC(=O)N[C@@H](CC(=O)O)C(=O)N[C@@H](CCC(=O)O)C(=O)N[C@H](C(=O)N[C@@H](CC(=O)O)C(=O)CCl)C(C)C [Ac-DEVD-CMK]
inhibition of cell-free Bax cleavage activity ([4]; inhibitor 20 μM): partially inhibited

CCCC[C@@H](C=O)NC(=O)[C@H](CC(C)C)NC(=O)[C@H](CC(C)C)NC(C)=O [LLnL, calpain inhibitor I] (Ac-Leu-Leu-[Nle]-aldehyde)
inhibition of cell-free Bax cleavage activity ([4]; inhibitor 10 μM): completely inhibited

CSCC[C@@H](C=O)NC(=O)[C@H](CC(C)C)NC(=O)[C@H](CC(C)C)NC(C)=O [LLM, calpain inhibitor KK] (Ac-Leu-Leu-Met-aldehyde)
inhibition of cell-free Bax cleavage activity ([4]; inhibitor 10 μM): completely inhibited

COc1cc([C@@H]2c3cc4c(cc3[C@@H](O[C@@H]3O[C@@H]5CO[C@@H](C)O[C@H]5[C@H](O)[C@H]3O)[C@H]3COC(=O)[C@H]23)OCO4)cc(OC)c1O [VP-16, Etoposide]
earliest time of Bax cleavage (Bax/p18 and p36 bands, B9 antibody) [5]: 3 h | time at which autolysis of the calpain 30 kDa subunit began [5]: 3 h | time at which apoptotic execution phase began (caspase-3 processing/activation, PARP cleavage, DNA fragmentation) ([6]; VP-16 50 μM): 6 h | earliest time of appearance of Bax/p18 and p36 bands [7]: 3 h | treatment time at which apoptosis was induced (caspase-3 processing, PARP cleavage) [7]: ≥ 6 h | treatment time after which cytosolic cytochrome c appeared ([8]; VP-16 50 μM): 3 h | treatment time at which cell-free Bax cleavage activity is present in cell extract [9]: ≥ 3 h | delay of appearance of Bax/p18 and p36 bands versus Neo cells [10]: 9 h | delay of detection of cell-free Bax cleavage activity versus Neo cells [10]: 9 h | time after which caspase-3 processing and PARP cleavage were observed [10]: 24 h | time after which release of cytochrome c was detected [10]: 12 h | time of appearance of Bax/p18 and p36 bands [10]: 12 h | time of autolysis of calpain 30 kDa subunit (delayed from 3 hours in Neo cells) [10]: 12 h

CN[C@@H]1C[C@H]2O[C@@](C)([C@@H]1OC)n1c3ccccc3c3c4c(c5c6ccccc6n2c5c31)C(=O)NC4 [staurosporin]
time at which caspase-3 processing/activation, PARP cleavage and DNA fragmentation occurred ([6]; staurosporin 1 μM, up to 24 hours): ≥ 6 h | treatment time after which cytosolic cytochrome c appeared ([8]; staurosporin 1 μM): 3 h

CCCC[C@@H](C=O)NC(=O)[C@H](CC(C)C)NC(=O)OCc1ccccc1 [calpeptin, Calpeptin]
effect on VP-16-induced Bax cleavage [11, 12]: delay | effect on VP-16-induced release of cytochrome c from mitochondria to the cytosol [11, 12]: delay | time of VP-16-induced caspase-3 processing and PARP cleavage with calpeptin (delayed from 6 hours) [11, 12]: 24 h | time of autolysis of the 30 kDa small subunit of calpain with calpeptin (delayed from 3 hours) [11, 12]: 24 h | apoptosis induction by the inhibitor itself ([11]; calpeptin 10 μM, 1 hour pretreatment, no VP-16): did not induce apoptosis | inhibition of PARP cleavage at 24 hours ([11]; fresh calpeptin added at 18 hours after VP-16 treatment): complete inhibition

COC(=O)C[C@H](NC(=O)[C@H](C)NC(=O)[C@@H](NC(=O)OCc1ccccc1)C(C)C)C(=O)CF [Z-VAD-FMK] (Cbz-Val-Ala-Asp(OMe)-CH2F)
inhibition of cell-free Bax cleavage activity ([4]; inhibitor 20 μM): partially inhibited
